Measurements published in US20130109854A1, “Novel Methods for Preparation of (+)-1-ethyl-4-[2-(4-morpholinyl)ethyl)-3,3-diphenyl-2-pyrrolidinone and Salts Thereof” (priority 2011, published 2013).

Legend:
[1] = cited from earlier work
[2] = Stimulating ventilation or reversing respiratory depression (respiratory stimulant activity); type: in vivo; conditions: compared with racemic doxapram
[3] = Acute side effects in animals; type: in vivo; conditions: compared with racemic doxapram or a salt thereof

SMILES | tidal volume and respiratory rate ([1]; administered intravenously) | effect on stimulating respiration (breathing) ([1]; animals, Ward & Franko, 1962) | activity in stimulating ventilation or reversing respiratory depression (desired beneficial pharmacological activity of racemic doxapram) [2] | adverse side effects compared to administration of racemic doxapram [3]
CCN1CC(CCN2CCOCC2)C(c2ccccc2)(c2ccccc2)C1=O (racemic) [doxapram] | increase | strong, dose-dependent effect | – | –
CCN1C[C@H](CCN2CCOCC2)C(c2ccccc2)(c2ccccc2)C1=O [(+)-doxapram, (+)-4-(2-(1-ethyl-5-oxo-4,4-diphenylpyrrolidin-3-yl)ethyl)morpholine] | – | – | most or all the desired beneficial pharmacological activity associated with the racemic doxapram | significantly reduced adverse side effects
CCN1CC(CCN2CCOCC2)C(c2ccccc2)(c2ccccc2)C1=O (single isomer, unassigned; (-)) [(−)-doxapram] | – | – | essentially devoid of activity | –
